Laboratory results: patent US20040038888A1 (priority 2002, published 2004)

Legend:
[1] = tested on: mouse adult neural stem cells; assay: Thymidine incorporation, adult mouse NSC, non-adherent culture; type: cell-based; details: non-adherent conditions, 3 days, all PACAP treatments relative to controls
Procedure: To determine thymidine incorporation into DNA, neurospheres were split and seeded in Neurosphere medium as single cells in 96-well plates, 10,000 cells/well. Substances to be measured were added in quadruplicates and cells were incubated at 37° C. for 3 days. 3H-thymidine, 10 uCi/ml, was present the last 24 hours. Cells were harvested on to a filter paper and radioactivity was measured. 3H-thymidine (6,7 Ci/mmol) was from PerkinElmer.

CREB phosphorylation = assay: Western blot of phosphorylated CREB, undifferentiated aHNSC; type: cell-based, human; details: 10 nM PACAP
Procedure: A biopsy from the anterior lateral wall of the lateral ventricle was taken from an adult human patient and enzymatically dissociated in PDD (Papain 2.5 U/ml; Dispase 1 U/ml; Dnase 1 250 U/ml) in DMEM containing 4.5 mg/ml glucose and 37° C. for 20 min. The cells were gently triturated and mixed with three volumes of Human Neural Stem Cell Plating Medium (HNSCPM) (DMEM/F12; 10% fetal bovine serum (FBS)). The cells were pelleted at 250×g for 5 min. The supernatant was subsequently removed and the cells resuspended in HNSCPM, plated out on fibronectin coated culture dishes and incubated at 37° C. in 5% CO2. The following day the expansion of the culture was initiated by change of media to aHNSC culture media (DMEM/F12; BIT 9500; EGF 20 ng/ml; FGF2 20 ng/ml). The aHNSC were split using trypsin and EDTA under standard conditions. FBS was subsequently added to inhibit the reaction and the cells collected by centrifugation at 250×g for 5 min. The aHNSC were replated in aHNSC culture media.
Adult mouse NSC and aHNSC were prepared and cultured as stated in Example 2 (Method A) and Example 1 (Method A). Cultures were exposed to either 10 nM PACAP or EGF (1 nM) and FGF (1 nM) for the times indicated. […] DNA content was detemined by the use of a Pico Green-kit for ds DNA quantitation of cell extracts. […] Phosphorylated CREB protein bands (43 kD) were detected using the ECL-kit (Amersham).

primary adult NSC = assay: Culture of neurospheres for counting and photographing; type: cell-based, mouse; details: PACAP 100 nM in place of EGF, 7 days, versus control
Procedure: Anterior lateral wall of the lateral ventricle was dissociated as described in Example 2 (Method A), and the cells resuspended in Neurosphere medium without EGF. The cell suspension was divided into a 24-well plate with triplicates of control (no addition), PACAP treated and EGF (1 nM) treated cells. The final concentration of PACAP was 100 nM. After 7 days the spheres were counted and photographed using a Nikon Eclipse TE300 microscope and Nikon Spot Insight camera.

subventricular zone NSC = assay: PACAP/BrdU infusion, BrdU labelling of the lateral ventricle wall; type: in vivo, mouse; details: 600 nM pump concentration, 0.5 μl/hr into the lateral ventricle, 3.5 days, relative to vehicle
Procedure: 10 week old male mice (C57B1/2), maintained on a 12 hr light/dark cycle with food and water ad libidum, were infused in the right lateral ventricle with PACAP38 (Bachem), using a Alzet pump (1007D), for 3,5 days or 7 days at a daily dose of 31 ng/day (600 nM PACAP pump concentration infused at a rate of 0.5 μl/hr). Bromodeoxyuridine (BrdU) (50 mg/ml) was also included in the infusion vehicle (0.9% saline containing 1 mg/ml mouse serum albumin (Sigma)) to enable measurement of proliferation by quantitation of BrdU incorporation in the DNA. The group of infused with either PACAP/BrdU or vehicle/BrdU for 3,5 days and sacrificed at this time point. […]
Brains were cut into 14-μm coronal sections using a cryostat-microtome. […] After 1 hour of washing, the BrdU-antibody complex was detected using 0.05% diaminobenzidine with 0.01% H2O2, and counterstained with Hematoxylin. […]
For all BrdU labelling experiments, three to six sections per animal were analysed. […] The number of BrdU-labelled cells per area of dentate granule cell layer was counted manually. […] BrdU-positive cells were counted along 2×250 micrometer strips of the lateral ventricle wall (see FIG. 18). Area measurements of both the dentate granule cell layer and the “counted” region of the lateral ventricle wall (including the ependymal cell layer and subventricular zone) were made from each slide used for the cell counts. […]

## pituitary adenylate cyclase-activating polypeptide [PACAP]
[1]
  incorporation of tritiated thymidine: Greater incorporation of tritiated thymidine
CREB phosphorylation; 15 min
  CREB phosphorylation: strong upregulation
CREB phosphorylation; 240 min
  CREB phosphorylation: slightly above basal levels
Primary adult NSC
  sizes and number of neurospheres: observably greater than that of the control
Subventricular zone NSC
  proliferation in the subventricular zone of the lateral ventricle wall (BrdU-positive cells): significant increase in proliferation
